In a melting point compilation (Tetko et al.; mined from patent text by program, amines drawn as free bases though some values may be those of a salt):

Compared with `COc1c(C(=O)O)nc(Br)c(Cl)c1N`, `CCOCc1nc(N)c(N=O)c(=O)[nH]1` is higher in melting point: 154 to 156 °C for the first, 163 to 165 °C for the second.

First: CC(=NO)c1noc2ccccc12
Second: CC(=O)Nc1ccc(-c2nc(=O)c3ccccc3s2)cc1
The melting point of the first is lower: 193 to 195 °C for the first, 231 to 232 °C for the second.

First: CCOC(=O)NN=Cc1nc[nH]c1C
Second: CCOC(=O)Cc1ccc2c(c1)sc1ccc(C)cc12
The melting point of the first is higher: 195 to 203 °C for the first, 45 to 48 °C for the second.

First: COc1cccc(NC(=O)NCc2cccc3c2CN(C2CCC(=O)NC2=O)C3=O)c1 (centres undefined)
Second: O=C1CCC(N2Cc3c(OCc4ccc(CNC5CCCCC5)cc4)cccc3C2=O)C(=O)N1 (centres undefined)
The melting point of the first is higher: 340 to 342 °C for the first, 175 to 177 °C for the second.

First: O=C(O)CCCCCN1C(=O)c2ccc(C(=O)O)cc2C1=O
Second: CCOC(=O)c1ccccc1NC(=O)CN1C(=O)c2ccccc2C1=O
The melting point of the first is higher: 202 to 204 °C for the first, 187 °C for the second.

First: O=C(O)C(=Cc1cc(C(=O)O)c(=O)n2ccccc12)C(=O)O
Second: CC(C)(C)OC(=O)[C@@H]1CCCN1C(=O)C1CCCC1SC(=O)c1ccccc1 (some centres undefined)
The melting point of the first is higher: > 250 °C for the first, 68 to 70 °C for the second.

Compared with `CC(C)Nc1cccnc1N1CCN(C(=O)c2ccc(C(=O)NC(C)(C)C)cn2)CC1`, `COc1ccc(C)cc1NC(=O)Nc1ccc(N2CCN(C(=O)OC(C)(C)C)CC2)cc1C` is higher in melting point: 161 to 162 °C for the first, 169 to 171 °C for the second.

Compared with `CCN1c2ncc(CSc3ccccc3)cc2C(=O)N(C)c2ccc(Cl)nc21`, `C=CCN1C(=O)C(F)N=C(c2ccccc2)c2cc(Cl)ccc21` (centres undefined) is higher in melting point: 92 to 93 °C for the first, 138 to 140 °C for the second.

First: CCOc1cccc(NC(=O)NS(=O)(=O)c2ccc(C)cc2)n1
Second: Cc1ccc(S(=O)(=O)OCC2COc3ccccc3O2)cc1 (centres undefined)
The melting point of the first is higher: 197 to 199 °C for the first, 79 °C for the second.

First: CC(=NO)C1CCC2C3CC=C4C(C)(C)C(=O)C(C#N)CC4(C)C3CCC12C (centres undefined)
Second: CC1(C)C=C(CC(=O)O)C(C)(C)CC1
The melting point of the first is higher: 190 to 192 °C for the first, 50 to 54 °C for the second.

First: Cn1cnnc1C(O)(c1ccc(Cl)cc1)c1ccc2c(c1)c(CCc1cccc(Cl)c1)cc(=O)n2C (centres undefined)
Second: Nc1ncnc2c1c(-c1cccc(O)c1)cn2-c1cccc(OCCCn2ccnc2)c1
The melting point of the first is higher: 200 °C for the first, 120 to 122 °C for the second.

Compared with `COC(=O)C(NC(=O)OC(C)(C)C)c1ccc(CC(=O)O)cc1` (centres undefined), `CC(C)C(C(=O)O)c1ccc(Cl)cc1` (centres undefined) is lower in melting point: 123 to 124 °C for the first, 88 to 89 °C for the second.

First: O=C1OC(CNC(=S)C(F)F)CN1c1ccc(N2CCOCC2)c(F)c1 (centres undefined)
Second: CCC(NS(=O)(=O)c1ccc(N2CCOCC2)cc1)C(=O)O (centres undefined)
The melting point of the first is lower: 125 to 127 °C for the first, 163 to 165 °C for the second.

Compared with `CC(C)C1N(CC(N)=O)C(=O)CN1C(=O)CCl` (centres undefined), `CNC(=O)ON=C1SCC(=O)N1C(C)C` is lower in melting point: 163 °C for the first, 94 to 96 °C for the second.

First: O=C(N[C@H]1CC[C@H](CCN2CCC(c3cccc4c3CCO4)CC2)CC1)c1ccc(-c2ccccc2)cc1
Second: COc1ccc(N2CCN(CCC3OCCc4ccc(C(N)=O)cc43)CC2)cc1 (centres undefined)
The melting point of the first is higher: 241 °C for the first, 178 to 180 °C for the second.

First: COc1ccc(C(=O)Nc2ccccc2)cc1NCc1cccc2ccccc12
Second: CN1C(=O)C(NC(=S)Nc2ccccc2)N=C(c2ccccc2)c2ccccc21 (centres undefined)
The melting point of the first is lower: 172 to 174 °C for the first, 209 to 211 °C for the second.

First: CC1(C)OC[C@H](Cc2ccccc2)N1C(=O)Cn1cc(I)cn1
Second: CC(C)N[C@H](CO)Cc1ccccc1
The melting point of the first is higher: 117 to 120 °C for the first, 65 to 66 °C for the second.

Compared with `CCC12CCC(=O)C=C1CCC2=O` (single isomer, unassigned; (+)), `COC1CCC(CCNC(=O)n2cc(F)c(=O)[nH]c2=O)CC1OC` (centres undefined) is higher in melting point: 56 to 58.5 °C for the first, 129 °C for the second.

First: C=CCNC(=O)C1C=C(O)c2cc(Cl)ccc2O1 (centres undefined)
Second: COC(=O)CCC(=O)c1ccc(-c2ccc(Cl)cc2F)cc1
The melting point of the first is higher: 129 to 130 °C for the first, 90.5 to 92.5 °C for the second.

Compared with `CCOC(=O)C(C#N)=Cc1c(Cl)n(Cc2ccc(OC)cc2)c2ccccc12`, `COc1ccc2ccccc2c1CC#N` is lower in melting point: 126 to 128 °C for the first, 95.2 to 95.6 °C for the second.

First: O=c1nc(-c2cccc(CCOP(=O)(O)O)n2)sc2ccccc12
Second: OCc1cccc2sc(-c3ccccc3)nc12
The melting point of the first is higher: 235 to 237 °C for the first, 116 to 117 °C for the second.

First: O=c1[nH]c2c(O)cccc2n1CCN1CCN(c2cccc(C(F)(F)F)c2)CC1
Second: O=C(OCc1ccccc1)N1CCC(c2cc3ccccc3c(=O)[nH]2)CC1
The melting point of the first is lower: 110 °C for the first, 179 to 181 °C for the second.

First: CC(C)[C@H]1[C@@H](O)CC(=O)N1c1ccc(C#N)c(Cl)c1
Second: Cn1c(C(F)(F)F)c(C#N)c2ccc(Cl)cc21
The melting point of the first is lower: 100 to 102 °C for the first, 142 to 145 °C for the second.

First: CC(C)(C)C(=O)Nc1c(F)cc(F)cc1Oc1ccc(C(C)(C)C(=O)O)cc1
Second: CC(C)(C)c1ccc(OCCC(=O)O)c(C(C)(C)C)c1
The melting point of the first is higher: 168 to 170 °C for the first, 105 to 106 °C for the second.

Compared with `COC(=O)COc1cccc2c(CNC(C)=O)coc12`, `Cc1cccc(NC(=O)NCCC(=O)O)c1` is higher in melting point: 139 to 140 °C for the first, 166 °C for the second.

First: CCOC(C)C(=O)c1cc(C(C)(C)C)c(O)c(C(C)(C)C)c1 (centres undefined)
Second: CC(C)(C)Nc1cc(NC(C)(C)C)nc(N2CCNCC2)n1
The melting point of the first is lower: 64 °C for the first, 135 to 138 °C for the second.

First: COc1ccnc(N2CCN(C(=O)c3ccsc3)CC2)n1
Second: Cc1nc(N2CCN(Cc3ccc(F)cc3)C2=O)sc1C(=O)NCc1ccncn1
The melting point of the first is lower: 90 to 92 °C for the first, 175 to 176 °C for the second.

First: COC(=O)CC(CSC(C)=O)C(=O)O (centres undefined)
Second: COC(=O)CC(O)(c1ccccc1)c1ccc2nc(N)n(S(=O)(=O)C(C)C)c2c1 (centres undefined)
The melting point of the first is lower: 120 to 121 °C for the first, 147 to 149 °C for the second.

First: CCCCC1(CCCC)CS(=O)(=O)c2ccc(N(C)C)cc2C(c2ccc(OCc3cccnc3CCC(=O)O)cc2)C1O (centres undefined)
Second: CCCCCCOC(Cc1ccc(OCCc2nc(-c3ccccc3)oc2C)c2ccsc12)C(=O)O (centres undefined)
The melting point of the first is higher: 105 to 107 °C for the first, 79 to 82 °C for the second.

Compared with `COc1cc(CCN2CCCCC2)cc(OC)c1-c1ccc(C[C@H](NC(=O)c2c(Cl)cccc2Cl)C(=O)O)cc1`, `COC(=O)c1cc(NC2CCCCC2)c2cc(Cc3ccc(F)cc3)cnc2c1O` is lower in melting point: 195 °C for the first, 75.5 to 77.5 °C for the second.

First: C=CCNC(=O)[C@H]1NCSC1(C)C
Second: CC1(CC(=O)Nc2cccc3ncccc23)CCCCC1
The melting point of the first is lower: 45 to 47 °C for the first, 133 to 135 °C for the second.

Compared with `COc1ccc2c(CCC3CCN(C(=O)OC(C)(C)C)CC3)noc2c1`, `NCC1CCN(CCc2ccc(O)cc2)CC1` is higher in melting point: 95 to 96 °C for the first, 166 to 168 °C for the second.

First: COc1ccccc1CNc1ccc2cc(Nc3nnc(C(F)(F)F)o3)ccc2n1
Second: COc1ccc(-c2cnc3ccc(-c4nnc(SCc5cccc(C(F)(F)F)c5)o4)cn23)cc1
The melting point of the first is higher: 198 °C for the first, 104 to 105 °C for the second.

Compared with `CCCCCCCCC1(COc2ccc(N)cc2)CCc2c(C)c(OC(C)=O)c(C)c(C)c2O1` (centres undefined), `CCCCCCCCOc1cc(N)c(OCOC)c(OC)c1` is lower in melting point: 112 to 114 °C for the first, 56 to 57 °C for the second.

First: CNc1nc(Cc2ccc(OC)c(OC)c2)nc2sc(C#N)c(C)c12
Second: COc1cc(-c2cnc3[nH]cc(C(=O)NCC(C)O)c3n2)cc(OC)c1OC (centres undefined)
The melting point of the first is lower: 161 to 163 °C for the first, 202 to 203 °C for the second.

Compared with `Cc1ccc(-c2cc(=S)ss2)nn1`, `COc1cc(C)nc(NC(N)=S)n1` is lower in melting point: 242 °C for the first, 220 °C for the second.

First: CC(C)c1nc(CCCO)n(CCO)c1Sc1cc(Cl)cc(Cl)c1
Second: Cc1ccc(N(c2ccc(C)cc2)c2ccc(C(O)(CCCO)CCCO)cc2)cc1
The melting point of the first is higher: 155 to 163 °C for the first, 131 to 132 °C for the second.

First: O=c1[nH]c2sc3ccc(I)cc3c2[nH]c1=O
Second: N#Cc1ccc2[nH]c3ccccc3c2c1
The melting point of the first is higher: > 300 °C for the first, 180 to 181 °C for the second.

Compared with `NC(=NO)c1ncn2c1[C@@H]1CCN1C(=O)c1cc(F)ccc1-2`, `OC1c2ccc(Cl)cc2OCc2cccnc21` (centres undefined) is lower in melting point: 248 to 250 °C for the first, 105 to 108 °C for the second.

First: NCCCCn1ccnc1-c1ccccc1
Second: COc1cc(/C=C/CO)ccc1OCc1csc(-c2ccccc2)n1
The melting point of the first is higher: 82 to 84 °C for the first, 71 to 72 °C for the second.

First: CN(C1=NC(=O)CS1)c1ccc(C(O)(C(F)(F)F)C(F)(F)F)cc1
Second: O=S(=O)(Nc1cc(O)ccc1Oc1ccccc1)C(F)(F)F
The melting point of the first is higher: 240 to 242 °C for the first, 97 to 99 °C for the second.

Compared with `CN1C(=O)C2(COc3cc4c(cc32)OCCO4)c2c(NC(=O)C3CCCC3)cccc21` (centres undefined), `COC(=O)c1nn(C2CCCCO2)cc1NC(=O)c1cccc(C)n1` (centres undefined) is lower in melting point: 196 to 198 °C for the first, 100 to 102 °C for the second.

Compared with `Nc1ccc(C(=S)OC2CCCCC2)c(Cl)c1`, `CC1=CC(c2ccccc2Cl)C(C(=O)OC(C)C)=C(N)N1` (centres undefined) is higher in melting point: 97 to 100 °C for the first, 161 °C for the second.

First: Cc1c(CO)c2cnnc(OCc3ccc(F)cc3)c2n1C[C@H]1C[C@@H]1C
Second: O=c1ncc(F)cn1COCc1ccc(Cl)cc1
The melting point of the first is higher: 128 to 129 °C for the first, 103 °C for the second.

Compared with `Cc1ccc(-n2c(-c3cccc4ccccc34)ccc2-c2cccc3ccccc23)cc1`, `ClCc1ccc(-n2c3ccccc3c3ccccc32)cc1` is lower in melting point: 105 to 106 °C for the first, 88 to 89 °C for the second.

First: CC(C(=O)O)c1ccc2[nH]ncc2c1 (centres undefined)
Second: Cc1c(-c2ccc(C(C)C)cc2)oc2c(C(=O)O)cccc2c1=O
The melting point of the first is lower: 91 to 96 °C for the first, 216 to 220 °C for the second.

First: COC(=O)C1(O)CC(CO)=NN1c1ncccc1Cl (centres undefined)
Second: COc1cc(C=O)ccc1OCc1nc(-c2cccnc2)oc1C
The melting point of the first is lower: 111 to 113 °C for the first, 164 to 165 °C for the second.

First: CC(C)(CCC#N)c1ccc(C(=O)Nc2cn3cc(Cl)ccc3n2)cc1
Second: CC(C)=NNc1ccc(OCC(C)(C)NCC(O)COc2ccccc2C#N)nn1 (centres undefined)
The melting point of the first is higher: 198 to 199 °C for the first, 126 to 128 °C for the second.

First: CC(C)C1NC(=O)C(CSSCC2NC(=O)C(C(C)C)NC2=O)NC1=O (centres undefined)
Second: [N-]=[N+]=NC1CC(n2cnc3c(NCC4CC4)nc(N)nc32)OC1CO (centres undefined)
The melting point of the first is higher: 270 °C for the first, 104 to 106 °C for the second.

Compared with `O=C(NCCCC(F)(F)F)Oc1ccc([N+](=O)[O-])cc1`, `Cc1nc(-c2cc(-n3c(=O)cc(C(F)(F)F)n(C)c3=O)ccc2Cl)sc1C` is higher in melting point: 118 to 120 °C for the first, 200 °C for the second.

First: O=C(Nc1ccccc1N1CCc2ccccc21)c1ccco1
Second: O=C(Nc1ccc(S(=O)(=O)Nc2ncccn2)cc1)c1ccccc1SSc1ccccc1C(=O)Nc1ccc(S(=O)(=O)Nc2ncccn2)cc1
The melting point of the first is lower: 99 to 102 °C for the first, 280 °C for the second.

First: CCc1cc2oc3cc(-c4ccccc4Cl)c4c(c3c2cc1O)C(=O)NC4=O
Second: Cc1ccnc2c(-c3ccc(C)c4c(C)ccnc34)ccc(C)c12
The melting point of the first is lower: 265 to 268 °C for the first, 290 to 295 °C for the second.
